Test results from US20150265703A1, “COMBINATION THERAPY OF AN AFUCOSYLATED CD20 ANTIBODY WITH A mTOR INHIBITOR” (ROCHE GLYCART AG, priority 2010, published 2015).

Test system: SU-DHL-4 human lymphoma cells
Test: Tumor growth inhibition study in vivo, SC SU-DHL-4 tumors in SCID beige mice
Settings: for SU-DHL-4 tumors growth in comparison with tumors from vehicle-treated animals: 3 mg/kg, single agent; for T/C (%) values of the treatment groups compared to the vehicle group: day 46 after tumor cell injection, GA101 3 mg/kg IV Q7Dx4, Torisel 3 mg/kg IP Q3Dx10, SC SU-DHL-4 tumors, SCID beige mice
Description: Test Agents Type II anti-CD20 antibody B-HH6-B-KV1 GE (=humanized B-Ly1, glycoengineered B-HH6-B-KV1=GA101; see WO 2005/044859 and WO 2007/031875) was provided from GlycArt, Schlieren, Switzerland. Antibody buffer included histidine, trehalose and polysorbate 20. Antibody solution was diluted appropriately in PBS from stock for prior injections. Temsirolimus (Torisel®, 25 mg/ml, Wyeth Pharmaceuticals) was supplied by Oncodesign and stored at +4° C. protected from light according to the supplier's instructions.
SU-DHL-4 human lymphoma cells (DSMZ NO.: ACC 495) were grown as a suspension at 37° C. in a humidified atmosphere (5% CO2, 95% air). The culture medium was RPMI 1640 containing 2 mM L-glutamine (Ref BE12-702F, Batch N° 8MB0056, Lonza, Verviers, Belgium) and supplemented with 10% fetal bovine serum (Ref 3302, Batch N^o P282005, Lonza). The cells were counted in a hemocytometer and their viability was assessed by 0.25% trypan blue exclusion.
Female CB17 SCID beige mice, 5-6 week-old and weighing 16-20 g, were obtained from Charles River (L'Arbresle, France).
Ten millions (10^7) SU-DHL-4 tumor cells in 100 μl of PBS with matrigel (50:50, BD Biosciences, France) were subcutaneously (SC) injected into the right flank of 52 female SCID beige mice.
All study data, including animal body weight measurements, tumor volume, clinical and mortality records, and drug treatment management were managed using Vivo Manager® software (Biosystemes, Dijon, France).
Isoflurane Forene (Minerve, Bondoufle, France) was used to anaesthetize the animals before SC inoculation of tumor cells, IV injection of compounds and sacrifice. Mortality, clinical signs and behaviour were recorded every day. Animal body weights and tumor volumes were monitored and recorded twice a week.
When the tumors reached a mean volume of 173±95 mm^3, 40 out of 52 tumor bearing […] mice were distributed in 4 groups of 10 mice. The treatment schedule was chosen as following: • Mice from group 1 received once weekly IV bolus injection of vehicle for 4 consecutive weeks (Q7Dx4). • Mice from group 2 received once weekly IV bolus injection of anti-CD20 antibody GA101 (B-HH6-B-KV1 GE) at 3 mg/kg/inj for 4 consecutive weeks (Q7Dx4). • Mice from group 3 received once daily IP injection of Torisel® at 3 mg/kg/inj with a 3-day interval between each dosing and a total of 10 injections (Q3Dx10). • Mice from group 4 received once weekly IV bolus injection of anti-CD20 antibody GA101 (B-HH6-B-KV1 GE) at 3 mg/kg/inj for 4 consecutive weeks (Q7Dx4) in combination with once daily IP injection of Torisel® at 3 mg/kg/inj with a 3-day interval between each dosing and a total of 10 injections (Q3Dx10)].
The antitumor efficacy of anti-CD20 antibody GA101 (B-HH6-B-KV1 GE) alone and in combination with Torisel® was examined. […]

Compound: CO[C@H]1C[C@@H]2CC[C@@H](C)[C@@](O)(O2)C(=O)C(=O)N2CCCC[C@H]2C(=O)O[C@H]([C@H](C)C[C@@H]2CC[C@@H](OC(=O)C(C)(CO)CO)[C@H](OC)C2)CC(=O)[C@H](C)/C=C(\C)[C@@H](O)[C@@H](OC)C(=O)[C@H](C)C[C@H](C)/C=C/C=C/C=C/1C [Torisel, Temsirolimus]
- SU-DHL-4 tumors growth in comparison with tumors from vehicle-treated animals: partially delayed
- T/C (%) values of the treatment groups compared to the vehicle group: 60%

Compound: GA101: Type II anti-CD20 antibody, humanized B-Ly1, glycoengineered B-HH6-B-KV1 (VH SEQ ID NO:7, VL SEQ ID NO:20), afucosylated IgG1
- SU-DHL-4 tumors growth in comparison with tumors from vehicle-treated animals: partially delayed
- T/C (%) values of the treatment groups compared to the vehicle group: 51%
